# Results published in US4690945A, “Process for the preparation of 5'-substituted 2-(3'-thienyl)propionic acids” (Laboratorios Madaus Cerafarm, S.A., priority 1981, dated 1987).
# Entries after “also recorded” stand apart in the source; their conditions may differ.
# Columns and labels:
# [1] = tested on: rat leg edema induced by carrageenin; test: carrageenin edema procedure on rats' legs (Δ volume), anti-inflammatory action; type: in vivo; design: key to Anti-inflammatory action, Δ volume: +++: Intense action; ++: Medium action; +: Minimal action; ±: Doubtful action; -: Negative action; --: Not tested; details: per os, 3 hours; for Anti-inflammatory action, Δ volume: class symbol; for ED50: po
# Method: (§1) The pharmacological tests were performed on rats and mice, using the carrageenin edema procedure on rats' legs and backs by the test for anti-inflammatory action and the acetic acid contorsion and hot plate tests on mice for the purpose of testing analgesic action.
# (§2) In the anti-inflammatory action test, the test was performed on rat leg edema induced by carrageenin, administering the compounds per os and measuring the volume of the edema 3 hours later by plethysmography.
# (§3) The results obtained in both tests are expressed as a percentage of inhibition of the edema or abscess, and were better than 30% in comparison with a control group.
# [2] = tested on: carrageenin abscess on rats' backs; test: carrageenin abscess test on rats' backs (Δ abscess), anti-inflammatory action; type: in vivo; design: key to Anti-inflammatory action, Δ abscess: +++: Intense action; ++: Medium action; +: Minimal action; ±: Doubtful action; -: Negative action; --: Not tested; details: rat back carrageenin abscess, weighed 24 hours after administration; for Anti-inflammatory action, Δ abscess: class symbol
# Method: as §1
# (§4) The anti-inflammatory action of these compounds was also examined by the carrageenin abscess test on rats' backs, the abscess being weighed 24 hours after administration of the product.
# as §3
# [3] = tested on: contorsions (stretching) induced by intraperitoneal dilute acetic acid; test: acetic acid contorsion test on mice, analgesic action; type: in vivo; design: key to Analgesic action, Acetic acid: +++: Intense action; ++: Medium action; +: Minimal action; ±: Doubtful action; -: Negative action; --: Not tested; details: for ED50: Mus musculus, ip, 0.5 h; for ED50 / Analgesic action, Acetic acid: mice, contorsions during 30 minutes after i.p. acetic acid; for analgesic action (in words): acetic acid and hot plate tests; for Analgesic action, Acetic acid: class symbol
# Method: The pharmacological tests were performed on rats and mice, using the carrageenin edema procedure on rats' legs and backs by the test for anti-inflammatory action and the acetic acid contorsion and hot plate tests on mice for the purpose of testing analgesic action. For the examination of analgesic action, the acetic acid and hot plate tests were used. […] In the acetic acid test, the number of contorsions (stretching) is determined, which are produced for 30 minutes following intraperitoneal administration of dilute acetic acid. Analgesic action is also tested by the hot plate test in which the pain stimulus is thermal, the time being measured in seconds which the animal takes to respond to the stimulus by licking its feet.
# [4] = acute toxicity (DL50 / LD50); details: mouse, in vivo
# Excerpt: Most of the compounds described in these examples have been tested pharmacologically and toxicologically (DL50) according to the methods indicated on pages 5 to 7, and the results are summarized in the appended table.
# [5] = overall pharmacological (anti-inflammatory and analgesic) action, tests on rats and mice; type: in vivo; details: for pharmacological action (in words): analgesic and anti-inflammatory; for anti-inflammatory activity (in words): in mammals
# Method: as §1, §2, §4
# (§5) For the examination of analgesic action, the acetic acid and hot plate tests were used.
# (§6) In the acetic acid test, the number of contorsions (stretching) is determined, which are produced for 30 minutes following intraperitoneal administration of dilute acetic acid. Analgesic action is also tested by the hot plate test in which the pain stimulus is thermal, the time being measured in seconds which the animal takes to respond to the stimulus by licking its feet.
# [6] = tested on: thermal pain stimulus (hot plate); test: hot plate test on mice, analgesic action; type: in vivo; design: key: +++: Intense action; ++: Medium action; +: Minimal action; ±: Doubtful action; -: Negative action; --: Not tested; details: class symbol
# Method: as §1, §5, §6
SMILES,"Anti-inflammatory action, Δ volume [1]",ED50 [1] [mg/kg],ED50 [2] [mg/kg],"Anti-inflammatory action, Δ abscess [2]",ED50 [3] [mg/kg],analgesic action (in words) [3],"Analgesic action, Acetic acid [3]",LD50 [4] [mg/kg],pharmacological action (in words) [5],anti-inflammatory activity (in words) ([5]; listed as I),"Analgesic action, Plate [6]",anti-inflammatory activity (in words) [5],anti-inflammatory activity (in words) ([5]; listed as II)
"CC(C(=O)O)c1csc(C(=O)c2ccccc2)c1 (stereo not shown) [LMC-I, 2-(5'-benzoyl-3'-thienyl)propionic acid]",+++,7.3,12.5,+++,50,have an analgesic action,+++,~400,notable analgesic and anti-inflammatory action; also recorded: most active compounds,anti-inflammatory activity in mammals,–,–,–
"CC(C(=O)O)c1csc(Cc2ccccc2)c1 (stereo not shown) [LMC-VII, 2-(5'-benzyl-3'-thienyl)propionic acid]",+,–,–,–,–,–,–,~1500,–,–,–,–,–
Cc1ccc(C(=O)c2cc(C(C)C(=O)O)cs2)cc1 (stereo not shown) [LMC-IV],+++,–,–,++,–,–,++,~1200,best representative of this action,–,++,–,–
CC(C(=O)O)c1csc(C(=O)c2ccc(Cl)cc2)c1 (stereo not shown) [B],–,–,–,–,–,–,–,–,–,–,–,potent anti-inflammatory activity,–
"CC(C(=O)O)c1csc(C(=O)c2ccc(Cl)cc2Cl)c1 (stereo not shown) [LMC-III, 2-(5'-(2"",4""-dichloro)benzoyl-3'-thienyl)propionic acid]",±,–,–,+,–,–,+,~1000,–,–,+,–,–
CC(C)Cc1cc(C(C)C(=O)O)cs1 (stereo not shown) [LMC-VI],+,–,–,+,–,–,–,> 1000,–,–,+,–,–
"CC(C)C(=O)c1cc(C(C)C(=O)O)cs1 (stereo not shown) [LMC-V, 2-(5'-isobutyryl-3'-thienyl)propionic acid]",++,–,–,+,–,–,–,~1500,–,–,+,–,–
CC(C(=O)O)c1csc(C(=O)c2ccccc2)c1 (stereo not shown) [A],–,–,–,–,–,–,–,–,–,–,–,potent anti-inflammatory activity,–
"CC(C(=O)O)c1csc(C(=O)c2ccc(Cl)cc2)c1 (stereo not shown) [LMC-II, 2-(5'-(4""-chloro)benzoyl-3'-thienyl)propionic acid]",+++,17.3,23.5,+++,69.6,have an analgesic action,+++,~1200,"notable pharmacological action, though it is inferior to that of compound I; also recorded: most active compounds",–,–,–,anti-inflammatory activity in mammals
